Reference: patent US5858684A, “Method of screening calcium receptor-active molecules” (priority 1995, dated 1999)
“Also recorded” adds a separate entry of the source.

Assays:
[1] = circulating PTH in rats; format: in vivo, rat
[2] = serum/blood ionized Ca2+ in rats; format: in vivo, rat; conditions: i.p.
Protocol: (§1) Compounds shown to activate the bovine parathyroid cell calcium receptor in vitro were tested for hypocalcemic activity in vivo. Male Sprague-Dawley rats (200 g) were maintained on a low calcium diet for one week prior to receiving test substance or vehicle as control. Blood was collected from the tail vein three hours after the intraperitoneal administration of NPS 467. […] Serum total calcium, albumin and phosphate were measured by techniques well known in the art.
Rats (male, Sprague-Dawley, 250-300 g) were fed standard rat chow and fasted overnight prior to the experiment. NPS R-467 was suspended in corn oil and administered as a single oral dose through a gavage needle. Three hours later a sample of blood was taken from the tail vein and assessed for ionized Ca^2+ levels.

[3] = serum albumin and phosphate in rats; format: in vivo, rat; conditions: any dose examined
Protocol: as §1

[4] = tested on: inositol phosphate formation in bovine parathyroid cells; assay: inositol phosphate formation in bovine parathyroid cells; format: cell-based
Protocol: After 30 seconds, the reaction was terminated by the addition of CHCl3 :MeOH:HCl and IP1 (circles) and IP3 (triangles) separated by anion exchange chromatography. Each point is the mean of 2 experiments, each performed in triplicate.
This section describes procedures measuring inositol phosphate formation. Membrane phospholipids were labeled by incubating parathyroid cells with 4 μCi/ml ^3 H-myo-inositol for 20-24 hours. Cells were then washed and resuspended in PCB containing 0.5 mM CaCl2 and 0.1% BSA. Incubations were performed in microfuge tubes in the absence or presence of various concentrations of organic polycation for different times. Reactions were terminated by the addition of 1 ml chloroform-methanol-12N HCl (200:100:1; v/v/v). Aqueous phytic acid hydrolysate (200 μl; 25 μg phosphate/tube). The tubes were centrifuged and 600 μl of the aqueous phase was diluted into 10 ml water.
Inositol phosphates were separated by ion-exchange chromatography using AG1-X8 in either the chloride- or formate-form. When only IP3 levels were to be determined, the chloride-form was used, whereas the formate form was used to resolve the major inositol phosphates (IP3, IP2, and IP1). For determination of just IP3, the diluted sample was applied to the chloride-form column and the column was washed with 10 ml 30 mM HCl followed by 6 ml 90 mM HCl and the IP3 was eluted with 3 ml 500 mM HCl. The last eluate was diluted and counted. For determination of all major inositol phosphates, the diluted sample was applied to the formate-form column and IP1, IP2, and IP3 eluted sequentially by increasing concentrations of formate buffer. The eluted samples from the formate columns were rotary evaporated, the residues brought up in cocktail, and counted.

[5] = tested on: parathyroid cell calcium receptor; format: cell-based
[6] = tested on: PTH secretion from bovine parathyroid cells; assay: PTH secretion from bovine parathyroid cells; format: cell-based
Protocol: PTH secretion was measured by first suspending cells in PCB containing 0.5 mM CaCl2 and 0.1% BSA.

[7] = cited from earlier work
[8] = biological target: T1, bovine parathyroid cell calcium receptor (BoPCaR 1) (Bos taurus, UniProt P35384); assay: inositol 1,4,5-triphosphate in Xenopus oocytes expressing BoPCaR 1; format: cell-based; conditions: 10 μg/ml, 48 hours
T1 construct: Xenopus oocytes were injected with BoPCaR 1, the 5.3 Kb cDNA encoding a bovine parathyroid cell calcium receptor; expressed in transfected cells; host or cells: Xenopus laevis oocytes injected with cRNA/cDNA of BoPCaR 1
T1 sequence (P35384 20-1085): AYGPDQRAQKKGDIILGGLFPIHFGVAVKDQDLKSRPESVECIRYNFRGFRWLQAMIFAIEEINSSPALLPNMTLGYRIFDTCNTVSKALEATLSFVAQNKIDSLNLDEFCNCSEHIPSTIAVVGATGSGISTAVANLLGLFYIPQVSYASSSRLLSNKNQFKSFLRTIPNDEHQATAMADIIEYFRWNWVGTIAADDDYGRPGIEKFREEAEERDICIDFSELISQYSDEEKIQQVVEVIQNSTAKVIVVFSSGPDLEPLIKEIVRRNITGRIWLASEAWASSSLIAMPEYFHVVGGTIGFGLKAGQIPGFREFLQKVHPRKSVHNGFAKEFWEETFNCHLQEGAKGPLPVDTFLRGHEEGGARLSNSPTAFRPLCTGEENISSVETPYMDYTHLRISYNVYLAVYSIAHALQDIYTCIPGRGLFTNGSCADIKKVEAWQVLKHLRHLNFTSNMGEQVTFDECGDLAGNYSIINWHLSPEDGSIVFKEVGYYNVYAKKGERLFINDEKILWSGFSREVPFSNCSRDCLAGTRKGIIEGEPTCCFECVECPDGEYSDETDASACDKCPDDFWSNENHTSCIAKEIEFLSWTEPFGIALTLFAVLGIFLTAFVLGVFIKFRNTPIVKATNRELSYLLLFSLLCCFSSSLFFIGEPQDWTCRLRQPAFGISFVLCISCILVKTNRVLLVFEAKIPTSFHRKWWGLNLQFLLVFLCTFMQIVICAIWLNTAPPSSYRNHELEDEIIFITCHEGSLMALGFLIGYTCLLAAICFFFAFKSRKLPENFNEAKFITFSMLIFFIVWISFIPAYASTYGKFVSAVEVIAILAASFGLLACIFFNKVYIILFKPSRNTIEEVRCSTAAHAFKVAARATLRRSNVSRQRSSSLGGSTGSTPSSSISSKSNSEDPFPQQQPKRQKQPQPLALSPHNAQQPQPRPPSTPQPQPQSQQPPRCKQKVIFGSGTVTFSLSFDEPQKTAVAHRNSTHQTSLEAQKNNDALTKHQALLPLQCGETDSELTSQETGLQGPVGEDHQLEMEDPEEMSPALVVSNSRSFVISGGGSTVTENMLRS
Excerpt: These responses are mediated by the following series of biochemical events:
(1) Activation of phospholipase C by a pertussis toxin-sensitive guanine nucleotide regulatory (G) protein resulting in 4-7 fold increases in the levels of inositol 1,4,5-triphosphate (IP3).

[9] = tested on: cyclic AMP formation in bovine parathyroid cells; format: cell-based
Protocol: Cells were incubated as above for PTH secretion studies and at the end of the incubation, a 0.15-ml sample was taken and transferred to 0.85 ml of hot (70° C.) water and heated at this temperature for 5-10 minutes. The tubes were subsequently frozen and thawed several times and the cellular debris sedimented by centrifugation. Portions of the supernatant were acetylated and cyclic AMP concentrations determined by radioimmunoassay.
Each value is the mean±SEM of three experiments.

[10] = net positive charge; format: physicochemical

COc1cccc(C(C)NCCCc2ccccc2)c1 (racemic) [NPS 467]
circulating levels of PTH [1]: dose-dependent reduction in circulating levels of PTH | serum or blood Ca2+ ([2]; low calcium diet, 3 hours after dosing, rats): dose-dependent reduction in serum or whole blood | time of maximal hypocalcemic effect ([2]; returned toward control levels after 24 hours): maximal within three hours | serum albumin or phosphate levels [3]: no change in serum albumin or phosphate levels

CCCCCCCCCCCCCC(=O)O[C@@H]1[C@@H](C)[C@@]2(O)[C@@H](C=C(CO)C[C@]3(O)C(=O)C(C)=C[C@@H]23)[C@@H]2C(C)(C)[C@]12OC(C)=O [PMA, phorbol myristate acetate]
IP1 formation evoked by extracellular Ca2+ or spermine ([4]; 100 nM PMA, 5 minutes): depresses the formation of IP1 | shift of concentration-response curve for [Ca2+]i ([5]; 100 nM PMA): shifts to the right | shift of concentration-response curve for PTH secretion ([6]; 100 nM PMA): shifts to the right

NCCCC[C@H](N)C(=O)O [lysine]
interaction with phospholipid vesicles [7]: not interacting to a significant extent

pertussis toxin
inhibition of the increase in IP3 by pertussis toxin [8]: 75%

protamine
formation of inositol phosphates [4]: increases the formation of inositol phosphates | onset of increase in IP3 formation [4]: ≤ 30 s | isoproterenol-induced cyclic AMP [9]: depressed isoproterenol-induced increases | increase in [Ca2+]i / mobilization of intracellular Ca2+ [5]: evoked rapid and transient increases | inhibition of PTH secretion ([6]; bovine parathyroid cells): inhibit PTH secretion; also recorded: inhibited PTH secretion to the same extent | net positive charge [10]: +21
